According to patent US9365572B2, “PI3K and/or mTOR inhibitor” (XUANZHU PHARMA CO., LTD., priority 2012, dated 2016):

What was measured:
Experiment in all cases: Kinase selectivity, Mobility shift assay
Assay type in all cases: biochemical
[1] = target: CMET (Homo sapiens (Human), UniProt P08581)
Method: (§1) Object: In this assay, the inhibitory activity of the test substance on the kinases listed in Table 3 was determined, and therefore the selectivity of the present compound was determined.
(§2) Except for the BRAF V600E kinase in Table 3, the Mobility shift assay was used for other kinases.
(§3) 1. Preparation of Agents:
(§4) • 1.1 1-fold kinase buffer without MnCl2: 50 mM HEPES, pH 7.5, 0.0015% Brij-35, 10 mM MgCl2, 2 mM DTT. • 1.2 1-fold kinase buffer with MnCl2: 50 mM HEPES, pH 7.5, 0.0015% Brij-35, 10 mM MgCl2, 10 mM MnCl2, 2 mM DTT. • 1.3 Termination solution: 100 mM HEPES, pH 7.5, 0.0015% Brij-35, 0.2% Coating Reagent#3, 50 mM EDTA. • 1.4 2.5-fold kinase solution: The kinase was added to the 1-fold kinase buffer to form a 2.5-fold kinase solution. • 1.5 2.5-fold substrate solution: FAM fluorescence-labelled polypeptide and ATP were added to the 1-fold kinase buffer to form a 2.5-fold substrate solution. 2. Preparation of 5-fold compound
(§5) The final test concentration of the compound was 10 μM at maximum. Firstly, a 50-fold concentration (i.e. 500 μM) was prepared with 100% DMSO. The compound was diluted with 100% DMSO by 5 folds at 5 concentrations (successively 500 μM, 100 μM, 20 μM, 4 μM, and 0.8 μM). After diluting with 1-fold kinase buffer by 10 folds, 5 μl of the samples were transferred to a 384-well reaction plate. Two negative control wells and two positive control wells were set at each line respectively. Replication was made in a 96-well plate in five concentrations of 5-fold compound. 10% DMSO was added to the positive control well, and 5 μl of EDTA (250 mM) was added to the negative control well.
(§6) • 3.1 To the 384-well reaction plate was added 5-fold compound dissolved in 10% DMSO at 5 μl/well. • 3.2 To the 384-well reaction plate was added 2.5-fold kinase solution at 10 μl/well. The plate was incubated at room temperature for 10 mins. • 3.3 To the 384-well reaction plate was added 2.5-fold substrate solution at 10 μl/well. The plate was incubated at 28° C. for a certain period. • 3.4 25 μl termination solution was added to terminate the reaction. The conversion was read from Caliper. 4. Inhibition rate calculation Inhibition rate (%)=(maximum−sample value)/(maximum−minimum)×100 • wherein: • maximum refers to the conversion at the DMSO control well, • minimum refers to the conversion at the control well without kinase. Lanthascreen Analysis Method for the BRAF V600E Kinase 1. Preparation of Agents: • 1.1 2-fold kinase solution: using 1-fold kinase buffer to prepare 2-fold kinase solution, with a final concentration of 0.35 nM of BRAFV600E; • 1.2 4-fold substrate solution: using 1-fold kinase buffer to prepare 4-fold substrate solution, with a final substrate solution concentration of 0.2 μM of Fluorescein-MAP2K1 and 1.5 μM of ATP. 2. Preparation of 4-fold compound • The final test concentration of the compound was 10 μM at maximum. Firstly, a 100-fold concentration (i.e. 1000 μM) was prepared with 100% DMSO. The compound was diluted with 100% DMSO by 5 folds at 5 concentrations. The compound series was identical to that in the Mobility Shift Assay. After diluting with 1-fold kinase buffer by 25 folds, the resulting samples were shaked and mixed evenly on a plate-shaker for 10 mins. 3. Procedure • 3.1 To the 384-well reaction plate was added 4-fold compound dissolved in 10% DMSO at 2.5 µl/well; • 3.2 To the 384-well reaction plate was added 2-fold kinase solution at 5 μl/well, and to the negative control wells were added 1-fold kinase buffer. The samples were shaked, mixed evenly, and kept standing at room temperature. • 3.3 To the 384-well reaction plate was added 4-fold substrate solution at 2.5 μl/well. The plate was reacted, shaked, mixed evenly and incubated at room temperature for one hour; • 3.4 Reaction result detection: 2-fold detection solution was prepared, with a final concentration of 2 nM of Antibody and 10 mM of EDTA. 10 μl of the detection solution was transferred to the 384-well plate to terminate the reaction. […]

[2] = target: CDK2 (Homo sapiens (Human), UniProt P24941)
Method: as §1, §2, §3, §4, §5, §6

[3] = target: CHK1 (Homo sapiens (Human), UniProt O14757)
Method: as §1, §2, §3, §4, §5, §6

[4] = target: KDR (Homo sapiens (Human), UniProt P35968)
Method: as §1, §2, §3, §4, §5, §6

[5] = target: MAPKAPK2 (Homo sapiens (Human), UniProt P49137)
Method: as §1, §2, §3, §4, §5, §6

[6] = target: PDK1 (Homo sapiens (Human), UniProt O15530)
Method: as §1, §2, §3, §4, §5, §6

[7] = target: P70s6k (Homo sapiens (Human), UniProt P23443)
Method: as §1, §2, §3, §4, §5, §6

[8] = target: ABL (Homo sapiens (Human), UniProt P00519)
Method: as §1, §2, §3, §4, §5, §6

[9] = target: CK1d (Homo sapiens (Human), UniProt P48730)
Method: as §1, §2, §3, §4, §5, §6

[10] = target: JAK2 (Homo sapiens (Human), UniProt O60674)
Method: as §1, §2, §3, §4, §5, §6

[11] = target: CKIT (Homo sapiens (Human), UniProt P10721)
Method: as §1, §2, §3, §4, §5, §6

[12] = target: CSK (Homo sapiens (Human), UniProt P41240)
Method: as §1, §2, §3, §4, §5, §6

[13] = target: PIM1 (Homo sapiens (Human), UniProt P11309)
Method: as §1, §2, §3, §4, §5, §6

[14] = target: FES (Homo sapiens (Human), UniProt P07332)
Method: as §1, §2, §3, §4, §5, §6

[15] = target: SRC (Homo sapiens (Human), UniProt P12931)
Method: as §1, §2, §3, §4, §5, §6

[16] = target: IGF1R (Homo sapiens (Human), UniProt P08069)
Method: as §1, §2, §3, §4, §5, §6

[17] = target: JNK2 (Homo sapiens (Human), UniProt P45984)
Method: as §1, §2, §3, §4, §5, §6

[18] = target: FGFR1 (Homo sapiens (Human), UniProt P11362)
Method: as §1, §2, §3, §4, §5, §6

[19] = target: SGK (Homo sapiens (Human), UniProt O00141)
Method: as §1, §2, §3, §4, §5, §6

Sequence of SRC (P12931 whole entry, looked up, species assumed): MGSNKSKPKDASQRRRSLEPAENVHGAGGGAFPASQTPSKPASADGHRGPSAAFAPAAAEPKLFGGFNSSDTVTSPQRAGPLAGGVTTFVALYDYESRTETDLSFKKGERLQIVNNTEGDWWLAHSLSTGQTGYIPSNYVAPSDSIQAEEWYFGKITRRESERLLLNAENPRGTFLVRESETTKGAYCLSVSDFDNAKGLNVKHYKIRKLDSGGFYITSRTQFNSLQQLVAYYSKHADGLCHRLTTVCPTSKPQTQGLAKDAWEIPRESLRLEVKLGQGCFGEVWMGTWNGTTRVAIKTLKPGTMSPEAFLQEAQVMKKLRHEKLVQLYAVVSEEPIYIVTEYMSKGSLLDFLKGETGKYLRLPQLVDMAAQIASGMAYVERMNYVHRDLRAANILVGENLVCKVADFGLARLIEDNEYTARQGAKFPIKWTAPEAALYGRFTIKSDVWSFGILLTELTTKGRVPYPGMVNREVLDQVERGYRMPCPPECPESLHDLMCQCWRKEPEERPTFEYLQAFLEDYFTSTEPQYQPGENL
Sequence of ABL (P00519 whole entry, species assumed): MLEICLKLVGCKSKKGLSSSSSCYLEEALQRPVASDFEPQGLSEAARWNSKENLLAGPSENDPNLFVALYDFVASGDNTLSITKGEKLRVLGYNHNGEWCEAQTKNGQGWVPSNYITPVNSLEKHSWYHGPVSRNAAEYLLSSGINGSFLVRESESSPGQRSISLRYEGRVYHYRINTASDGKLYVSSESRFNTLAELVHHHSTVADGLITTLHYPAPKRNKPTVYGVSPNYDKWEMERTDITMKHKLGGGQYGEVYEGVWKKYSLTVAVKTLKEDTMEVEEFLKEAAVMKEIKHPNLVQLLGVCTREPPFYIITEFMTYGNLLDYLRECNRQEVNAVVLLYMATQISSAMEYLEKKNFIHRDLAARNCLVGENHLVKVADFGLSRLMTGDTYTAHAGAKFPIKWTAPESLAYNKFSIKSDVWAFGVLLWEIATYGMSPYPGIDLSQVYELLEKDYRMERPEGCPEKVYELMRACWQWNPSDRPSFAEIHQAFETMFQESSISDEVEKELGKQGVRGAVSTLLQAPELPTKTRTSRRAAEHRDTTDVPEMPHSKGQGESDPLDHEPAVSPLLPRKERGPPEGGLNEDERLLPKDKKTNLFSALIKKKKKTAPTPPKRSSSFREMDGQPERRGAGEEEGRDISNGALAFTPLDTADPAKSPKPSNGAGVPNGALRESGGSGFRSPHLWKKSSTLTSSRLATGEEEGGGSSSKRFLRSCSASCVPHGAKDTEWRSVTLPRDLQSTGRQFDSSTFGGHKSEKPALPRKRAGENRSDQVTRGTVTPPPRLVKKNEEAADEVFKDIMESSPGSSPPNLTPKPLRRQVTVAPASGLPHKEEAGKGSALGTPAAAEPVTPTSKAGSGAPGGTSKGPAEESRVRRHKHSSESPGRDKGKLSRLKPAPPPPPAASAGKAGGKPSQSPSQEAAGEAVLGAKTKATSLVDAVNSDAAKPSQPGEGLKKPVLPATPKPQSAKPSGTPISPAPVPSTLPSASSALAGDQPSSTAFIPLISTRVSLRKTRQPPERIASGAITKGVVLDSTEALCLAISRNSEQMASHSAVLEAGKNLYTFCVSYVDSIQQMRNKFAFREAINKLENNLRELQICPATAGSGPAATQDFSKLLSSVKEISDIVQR
Sequence of KDR (P35968 20-1356, species assumed): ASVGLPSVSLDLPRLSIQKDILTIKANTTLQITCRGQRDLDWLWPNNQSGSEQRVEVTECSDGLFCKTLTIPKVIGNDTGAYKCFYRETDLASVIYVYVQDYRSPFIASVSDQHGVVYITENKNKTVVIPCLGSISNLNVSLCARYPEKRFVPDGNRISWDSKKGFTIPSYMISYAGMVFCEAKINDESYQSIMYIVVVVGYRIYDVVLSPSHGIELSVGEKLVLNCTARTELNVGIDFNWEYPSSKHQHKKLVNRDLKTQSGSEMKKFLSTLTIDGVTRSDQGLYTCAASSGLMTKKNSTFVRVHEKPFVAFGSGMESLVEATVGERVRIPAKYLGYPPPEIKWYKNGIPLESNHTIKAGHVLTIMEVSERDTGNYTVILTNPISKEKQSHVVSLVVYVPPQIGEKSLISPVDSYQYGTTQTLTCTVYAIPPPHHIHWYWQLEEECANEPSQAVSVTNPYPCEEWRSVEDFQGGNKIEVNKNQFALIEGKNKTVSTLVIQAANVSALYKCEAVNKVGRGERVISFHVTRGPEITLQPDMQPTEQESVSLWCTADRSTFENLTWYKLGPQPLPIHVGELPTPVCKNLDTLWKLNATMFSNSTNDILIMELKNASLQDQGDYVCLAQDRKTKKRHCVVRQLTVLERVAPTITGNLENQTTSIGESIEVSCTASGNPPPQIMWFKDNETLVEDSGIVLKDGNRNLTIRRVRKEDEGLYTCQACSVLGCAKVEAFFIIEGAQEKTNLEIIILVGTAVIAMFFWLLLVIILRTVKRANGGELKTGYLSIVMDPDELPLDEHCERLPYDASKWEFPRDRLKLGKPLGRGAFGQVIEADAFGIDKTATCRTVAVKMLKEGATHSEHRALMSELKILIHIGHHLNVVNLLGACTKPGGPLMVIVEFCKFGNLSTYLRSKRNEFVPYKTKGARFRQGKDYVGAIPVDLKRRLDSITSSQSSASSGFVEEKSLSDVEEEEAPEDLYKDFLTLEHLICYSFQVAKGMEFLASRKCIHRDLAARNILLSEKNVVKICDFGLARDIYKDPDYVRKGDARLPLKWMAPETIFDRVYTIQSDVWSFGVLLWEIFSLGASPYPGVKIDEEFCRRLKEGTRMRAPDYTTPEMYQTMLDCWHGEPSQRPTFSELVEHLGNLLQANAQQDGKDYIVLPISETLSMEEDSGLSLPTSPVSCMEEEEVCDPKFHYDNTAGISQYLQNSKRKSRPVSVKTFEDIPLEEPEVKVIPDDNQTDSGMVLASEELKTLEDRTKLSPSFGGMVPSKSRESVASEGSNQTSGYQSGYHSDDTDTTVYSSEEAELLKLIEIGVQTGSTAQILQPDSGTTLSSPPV
Sequence of CK1d (P48730 whole entry): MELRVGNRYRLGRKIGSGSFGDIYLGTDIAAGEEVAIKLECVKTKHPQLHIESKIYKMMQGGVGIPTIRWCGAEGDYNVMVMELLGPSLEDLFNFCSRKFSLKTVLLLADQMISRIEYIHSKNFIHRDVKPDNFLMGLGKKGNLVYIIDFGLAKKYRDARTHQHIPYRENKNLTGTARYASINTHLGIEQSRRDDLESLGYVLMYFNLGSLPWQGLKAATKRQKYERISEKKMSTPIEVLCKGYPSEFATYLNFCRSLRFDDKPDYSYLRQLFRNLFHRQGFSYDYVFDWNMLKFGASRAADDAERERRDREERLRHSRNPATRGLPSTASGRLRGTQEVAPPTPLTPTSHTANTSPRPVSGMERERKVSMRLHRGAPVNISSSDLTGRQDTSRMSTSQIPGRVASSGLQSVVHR
Sequence of CKIT (P10721 26-976): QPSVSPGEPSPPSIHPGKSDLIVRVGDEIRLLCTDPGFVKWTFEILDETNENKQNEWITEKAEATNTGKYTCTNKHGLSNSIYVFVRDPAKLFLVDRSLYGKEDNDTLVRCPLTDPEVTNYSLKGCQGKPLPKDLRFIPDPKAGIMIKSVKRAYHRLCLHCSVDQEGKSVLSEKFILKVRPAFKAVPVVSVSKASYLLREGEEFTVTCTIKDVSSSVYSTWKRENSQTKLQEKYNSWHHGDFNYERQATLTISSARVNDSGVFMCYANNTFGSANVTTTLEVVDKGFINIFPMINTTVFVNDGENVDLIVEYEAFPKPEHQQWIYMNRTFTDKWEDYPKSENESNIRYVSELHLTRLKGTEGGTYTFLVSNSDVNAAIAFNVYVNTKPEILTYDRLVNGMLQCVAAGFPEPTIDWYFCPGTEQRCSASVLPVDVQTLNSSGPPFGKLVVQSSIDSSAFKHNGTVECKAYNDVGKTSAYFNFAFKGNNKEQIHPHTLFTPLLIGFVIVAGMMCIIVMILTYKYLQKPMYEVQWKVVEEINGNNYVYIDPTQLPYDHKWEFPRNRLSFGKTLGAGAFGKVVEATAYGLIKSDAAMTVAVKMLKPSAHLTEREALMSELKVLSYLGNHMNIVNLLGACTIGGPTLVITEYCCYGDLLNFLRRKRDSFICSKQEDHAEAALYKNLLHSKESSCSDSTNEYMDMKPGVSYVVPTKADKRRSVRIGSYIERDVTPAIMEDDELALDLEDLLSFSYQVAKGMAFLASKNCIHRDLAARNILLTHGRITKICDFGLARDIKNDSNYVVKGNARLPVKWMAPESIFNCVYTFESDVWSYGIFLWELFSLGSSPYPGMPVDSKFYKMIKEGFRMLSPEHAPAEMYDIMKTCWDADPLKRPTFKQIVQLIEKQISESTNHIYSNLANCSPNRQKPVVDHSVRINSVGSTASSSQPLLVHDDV
Sequence of SGK (O00141 whole entry, species assumed): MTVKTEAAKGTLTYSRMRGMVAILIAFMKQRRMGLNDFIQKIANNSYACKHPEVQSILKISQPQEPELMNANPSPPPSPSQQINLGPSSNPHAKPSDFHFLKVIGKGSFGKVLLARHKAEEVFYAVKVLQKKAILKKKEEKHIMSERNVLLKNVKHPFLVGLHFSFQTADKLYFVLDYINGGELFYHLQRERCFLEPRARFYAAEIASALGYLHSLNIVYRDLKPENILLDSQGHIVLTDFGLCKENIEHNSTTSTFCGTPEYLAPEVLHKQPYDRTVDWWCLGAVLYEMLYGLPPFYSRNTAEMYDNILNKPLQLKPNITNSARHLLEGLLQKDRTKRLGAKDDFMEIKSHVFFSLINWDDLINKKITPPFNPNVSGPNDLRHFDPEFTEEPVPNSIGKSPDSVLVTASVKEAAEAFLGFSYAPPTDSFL

Nc1ccc(-c2ccc3ncc4c(=O)[nH]c(=O)n(-c5cccc(C(F)(F)F)c5)c4c3n2)cn1 [Compound 5, 9-(6-aminopyridin-3-yl)-1-(3-(trifluoromethyl)phenyl)pyrimido[5,4-c][1,5]naphthyridine-2,4(1H,3H)-dione]
IC50 [1]: > 10000 nM
IC50 [2]: > 10000 nM
IC50 [3]: > 10000 nM
IC50 [4]: > 10000 nM
IC50 [5]: > 10000 nM
IC50 [6]: > 10000 nM
IC50 [7]: > 10000 nM
IC50 [8]: > 10000 nM
IC50 [9]: > 10000 nM
IC50 [10]: > 10000 nM
IC50 [11]: > 10000 nM
IC50 [12]: > 10000 nM
IC50 [13]: > 10000 nM
IC50 [14]: > 10000 nM
IC50 [15]: 842 nM
IC50 [16]: > 10000 nM
IC50 [17]: > 10000 nM
IC50 [18]: > 10000 nM
IC50 [19]: > 10000 nM
